From US10494355B2, “Oxadiazole amine derivative compounds as histone deacetylase 6 inhibitor, and the pharmaceutical composition comprising the same” (Chong Kun Dang Pharmaceutical Corp., priority 2015, dated 2019) come the findings set out here.

One assay has as its target T1, human recombinant HDAC6 (Homo sapiens, UniProt Q9UBN7).
T1 construct: purchased Calbiochem 382180
T1 sequence (Q9UBN7 1-1215): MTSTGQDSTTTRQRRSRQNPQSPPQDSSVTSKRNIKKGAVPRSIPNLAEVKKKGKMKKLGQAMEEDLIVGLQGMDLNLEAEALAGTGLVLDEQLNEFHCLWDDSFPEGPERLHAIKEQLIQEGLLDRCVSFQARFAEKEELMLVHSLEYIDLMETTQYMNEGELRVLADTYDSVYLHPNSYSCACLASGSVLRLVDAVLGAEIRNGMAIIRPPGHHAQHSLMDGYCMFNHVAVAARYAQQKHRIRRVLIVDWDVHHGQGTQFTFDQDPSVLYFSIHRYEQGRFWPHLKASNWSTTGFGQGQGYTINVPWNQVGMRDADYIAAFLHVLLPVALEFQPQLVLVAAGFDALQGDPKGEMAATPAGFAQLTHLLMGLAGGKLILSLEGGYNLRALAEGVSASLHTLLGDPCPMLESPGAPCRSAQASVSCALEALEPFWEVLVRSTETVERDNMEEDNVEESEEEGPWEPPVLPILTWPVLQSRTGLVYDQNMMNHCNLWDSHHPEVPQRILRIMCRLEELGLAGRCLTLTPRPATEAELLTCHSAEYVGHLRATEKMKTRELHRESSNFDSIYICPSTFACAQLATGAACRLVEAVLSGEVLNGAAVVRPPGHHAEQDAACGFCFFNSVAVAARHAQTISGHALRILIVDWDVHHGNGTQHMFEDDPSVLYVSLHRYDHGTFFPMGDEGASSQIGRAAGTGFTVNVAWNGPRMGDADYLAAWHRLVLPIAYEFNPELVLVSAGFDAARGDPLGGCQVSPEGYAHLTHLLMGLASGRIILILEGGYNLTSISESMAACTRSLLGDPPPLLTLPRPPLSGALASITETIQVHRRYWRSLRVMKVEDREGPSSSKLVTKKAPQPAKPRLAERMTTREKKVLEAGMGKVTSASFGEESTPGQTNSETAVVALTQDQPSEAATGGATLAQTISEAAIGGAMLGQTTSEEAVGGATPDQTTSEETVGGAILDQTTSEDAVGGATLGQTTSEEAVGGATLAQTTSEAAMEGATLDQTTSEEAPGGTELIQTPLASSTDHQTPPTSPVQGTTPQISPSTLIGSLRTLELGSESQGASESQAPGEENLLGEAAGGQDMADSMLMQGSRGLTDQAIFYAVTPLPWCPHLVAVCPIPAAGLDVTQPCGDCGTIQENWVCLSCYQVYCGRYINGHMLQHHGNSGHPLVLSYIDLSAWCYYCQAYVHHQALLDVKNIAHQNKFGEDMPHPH
The experiment in a line: HDAC6 enzyme activity inhibition assay (HDAC Fluorimetric Drug Discovery Kit). Type of assay: biochemical. The settings on record: 30° C. 60 minutes. Here is the method:
(§1) In order to examine the HDAC6 selectivity of the compounds of formula I of the present invention by HDAC1 and HDAC6 enzymatic activity inhibition assays, an experiment was performed using a conventional substance as a control.
(§2) HDAC enzyme activity was measured using a HDAC Fluorimetric Drug Discovery Kit (BML-AK511, 516, Enzo Life Science). For the HDAC1 enzyme activity test, human recombinant HDAC1 (BML-SE456) was used as an enzyme source, and Fluor de Lys®-“SIRT1 (BNL-KI177) was used as a substrate. A 5-fold dilution of the compound was seeded into a 96-well plate, and then 0.3 μg of the enzyme and 10 μM of the substrate were added to each well of the plate and allowed to react at 30° C. for 60 minutes. Then, Fluor de Lys®-Developer II (BML-KI176) was added thereto and allowed to react for 30 minutes, after which the fluorescence value (Ex 360, Em 460) was measured using a multi-plate reader (Flexstation 3, Molecular Device). The HDAC6 enzyme was tested using human recombinant HDAC6 (382180) (Calbiochem) according to the same protocol as the HDAC1 enzyme activity test method. Based on the resulting values, each IC50 value was calculated using GraphPad Prism4.0 program.

A further assay concerns the target T2, human recombinant HDAC1 (Homo sapiens, UniProt Q13547).
T2 construct: purchased Enzo Life Science BML-SE456
The experiment in a line: HDAC1 enzyme activity inhibition assay (HDAC Fluorimetric Drug Discovery Kit). Type of assay: biochemical. The settings on record: human recombinant HDAC1, 10 μM substrate, 30° C. 60 minutes. Here is the method: as §1, §2

T2 sequence (Q13547 whole entry): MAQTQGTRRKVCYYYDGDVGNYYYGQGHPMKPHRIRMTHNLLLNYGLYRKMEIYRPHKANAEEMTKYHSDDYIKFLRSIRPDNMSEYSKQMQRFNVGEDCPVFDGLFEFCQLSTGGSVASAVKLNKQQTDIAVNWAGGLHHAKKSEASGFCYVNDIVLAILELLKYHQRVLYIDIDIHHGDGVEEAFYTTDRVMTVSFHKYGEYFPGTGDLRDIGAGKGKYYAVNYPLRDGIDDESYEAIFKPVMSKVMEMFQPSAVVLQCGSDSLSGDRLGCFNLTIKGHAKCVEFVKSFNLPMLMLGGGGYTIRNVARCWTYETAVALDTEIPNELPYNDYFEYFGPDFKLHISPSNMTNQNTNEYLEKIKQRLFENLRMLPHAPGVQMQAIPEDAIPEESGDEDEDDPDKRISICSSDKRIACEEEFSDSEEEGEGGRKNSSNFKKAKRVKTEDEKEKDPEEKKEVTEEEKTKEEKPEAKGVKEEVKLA

Broadly, the IC50 is the concentration that inhibits the measured activity by half. For the molecule `Cc1ccc(C2(Nc3ncc(-c4nnc(C(F)(F)F)o4)cn3)CCC2)cc1` [Compound 1676, N-(1-(p-tolyl)cyclobutyl)-5-(5-(trifluoromethyl)-1,3,4-oxadiazol-2-yl)pyrimidin-2-amine], the figures for the concentration for half-maximal inhibition (IC50) at human recombinant HDAC6 and on human recombinant HDAC1 were 242 nM and greater than 10000 nM, respectively.
`Fc1ccccc1C1(Nc2ncc(-c3nnc(C(F)F)o3)cn2)CC1` [Compound 1683, 5-(5-(difluoromethyl)-1,3,4-oxadiazol-2-yl)-N-(1-(2-fluorophenyl)cyclopropyl)pyrimidin-2-amine]: the concentration for half-maximal inhibition (IC50) was 21 nM on human recombinant HDAC6 and greater than 10000 nM at human recombinant HDAC1.
The matching figures for `FC(F)c1nnc(-c2cnc(NC3(c4cccc(Cl)c4)CCC3)nc2)o1` [Compound 1615, N-(1-(3-chlorophenyl)cyclobutyl)-5-(5-(difluoromethyl)-1,3,4-oxadiazol-2-yl)pyrimidin-2-amine]: 22 nM and greater than 10000 nM.
Take `FC(F)c1nnc(-c2cnc(NC3(c4cccc(C5CCN(C6COC6)CC5)c4)CCC3)nc2)o1` [Compound 2060, 5-(5-(difluoromethyl)-1,3,4-oxadiazol-2-yl)-N-(1-(3-(1-(oxetan-3-yl)piperidin-4-yl)phenyl)cyclobutyl)pyrimidin-2-amine]: the results for the IC50 at human recombinant HDAC6 and on human recombinant HDAC1 were 221 nM and greater than 10000 nM, respectively.
The matching figures for `Fc1ccc(Cl)cc1C1(Nc2ncc(-c3nnc(C(F)(F)F)o3)cn2)CCC1` [Compound 1964, N-(1-(5-chloro-2-fluorophenyl)cyclobutyl)-5-(5-(trifluoromethyl)-1,3,4-oxadiazol-2-yl)pyrimidin-2-amine]: 1850 nM and greater than 10000 nM.
Take `FC(F)c1nnc(-c2cnc(NC3(c4ccccc4)CCC3)nc2)o1` [Compound 1559, 5-(5-(difluoromethyl)-1,3,4-oxadiazol-2-yl)-N-(1-phenylcyclobutyl)pyrimidin-2-amine]: the concentration for half-maximal inhibition (IC50) was 30 nM at human recombinant HDAC6 and greater than 10000 nM on human recombinant HDAC1.
The matching figures for `Fc1cccc(C2(Nc3ncc(-c4nnc(C(F)F)o4)cn3)CCC2)c1F` [Compound 1827, 5-(5-(difluoromethyl)-1,3,4-oxadiazol-2-yl)-N-(1-(2,3-difluorophenyl)cyclobutyl)pyrimidin-2-amine]: 43 nM and greater than 10000 nM.
The matching figures for `Cc1ccccc1C1(Nc2ncc(-c3nnc(C(F)(F)F)o3)cn2)CCC1` [Compound 1672, N-(1-(o-tolyl)cyclobutyl)-5-(5-(trifluoromethyl)-1,3,4-oxadiazol-2-yl)pyrimidin-2-amine]: 234 nM and greater than 10000 nM.
As for `FC(F)(F)c1nnc(-c2cnc(NC3(c4cccc(Cl)c4)CC3)nc2)o1` [Compound 2051, N-(1-(3-chlorophenyl)cyclopropyl)-5-(5-(trifluoromethyl)-1,3,4-oxadiazol-2-yl)pyrimidin-2-amine], the IC50 at human recombinant HDAC6 is 152 nM; on human recombinant HDAC1, greater than 10000 nM.
For `Fc1ccc(F)c(C2(Nc3ncc(-c4nnc(C(F)F)o4)cn3)CCC2)c1` [Compound 1821, 5-(5-(difluoromethyl)-1,3,4-oxadiazol-2-yl)-N-(1-(2,5-difluorophenyl)cyclobutyl)pyrimidin-2-amine], the IC50 on human recombinant HDAC6 was 32 nM; at human recombinant HDAC1, greater than 10000 nM.
Consider `FC(F)(F)c1ccc(C2(Nc3ncc(-c4nnc(C(F)(F)F)o4)cn3)CC2)cc1` [Compound 1742, 5-(5-(trifluoromethyl)-1,3,4-oxadiazol-2-yl)-N-(1-(4-(trifluoromethyl)phenyl)cyclopropyl)pyrimidin-2-amine], for which the half-maximal inhibitory concentration (IC50) at human recombinant HDAC6 is 531 nM; on human recombinant HDAC1 it was greater than 10000 nM.
`COc1ccc(C2(Nc3ncc(-c4nnc(C(F)F)o4)cn3)CCC2)cc1` [Compound 1603, 5-(5-(difluoromethyl)-1,3,4-oxadiazol-2-yl)-N-(1-(4-methoxyphenyl)cyclobutyl)pyrimidin-2-amine]: the concentration for half-maximal inhibition (IC50) on human recombinant HDAC6 is 50 nM; at human recombinant HDAC1 it was greater than 10000 nM.
The matching figures for `FC(F)c1nnc(-c2cnc(NC3(c4cccc(C(F)(F)F)c4)CC3)nc2)o1` [Compound 1740, 5-(5-(difluoromethyl)-1,3,4-oxadiazol-2-yl)-N-(1-(3-(trifluoromethyl)phenyl)cyclopropyl)pyrimidin-2-amine]: 62 nM and greater than 10000 nM.
The matching figures for `FC(F)c1nnc(-c2cnc(NC3(Cc4ccccc4)CCC3)nc2)o1` [Compound 2030, N-(1-benzylcyclobutyl)-5-(5-(difluoromethyl)-1,3,4-oxadiazol-2-yl)pyrimidin-2-amine]: 758 nM and greater than 10000 nM.
As to `FC(F)c1nnc(-c2cnc(NC3(c4ccc(C(F)(F)F)cc4)CC3)nc2)o1` [Compound 1738, 5-(5-(difluoromethyl)-1,3,4-oxadiazol-2-yl)-N-(1-(4-(trifluoromethyl)phenyl)cyclopropyl)pyrimidin-2-amine], the half-inhibitory concentration (IC50) at human recombinant HDAC6 is 132 nM; at human recombinant HDAC1, greater than 10000 nM.
The matching figures for `FC(F)c1nnc(-c2cnc(NC3(c4cccc(Cl)c4)CC3)nc2)o1` [Compound 2050, N-(1-(3-chlorophenyl)cyclopropyl)-5-(5-(difluoromethyl)-1,3,4-oxadiazol-2-yl)pyrimidin-2-amine]: 26 nM and greater than 10000 nM.
Regarding `FC(F)c1nnc(-c2cnc(NC3(c4ccccc4)CC3)nc2)o1` [Compound 1524, 5-(5-(difluoromethyl)-1,3,4-oxadiazol-2-yl)-N-(1-phenylcyclopropyl)pyrimidin-2-amine], the concentration for half-maximal inhibition (IC50) at human recombinant HDAC6 was 48 nM; on human recombinant HDAC1, greater than 10000 nM.
The matching figures for `O=C(OCc1ccccc1)N1CCC(Nc2ncc(-c3nnc(C(F)F)o3)cn2)(c2ccccc2)CC1` [Compound 1677, Benzyl 4-((5-(5-(difluoromethyl)-1,3,4-oxadiazol-2-yl)pyrimidin-2-yl)amino)-4-phenylpiperidine-1-carboxylate]: 267 nM and greater than 10000 nM.
The matching figures for `FC(F)(F)c1nnc(-c2cnc(NC3(c4ccc(Cl)cc4Cl)CCC3)nc2)o1` [Compound 1837, N-(1-(2,4-dichlorophenyl)cyclobutyl)-5-(5-(trifluoromethyl)-1,3,4-oxadiazol-2-yl)pyrimidin-2-amine]: 2520 nM and greater than 10000 nM.
Turning to `Fc1cc(C2(Nc3ncc(-c4nnc(C(F)F)o4)cn3)CC2)ccc1Cl` [Compound 2054, N-(1-(4-chloro-3-fluorophenyl)cyclopropyl)-5-(5-(difluoromethyl)-1,3,4-oxadiazol-2-yl)pyrimidin-2-amine], the results for the half-inhibitory concentration (IC50) at human recombinant HDAC6 and at human recombinant HDAC1 were 83 nM and greater than 10000 nM, respectively.
The matching figures for `Fc1ccc(C2(Nc3ncc(-c4nnc(C(F)(F)F)o4)cn3)CCC2)cc1` [Compound 1612, N-(1-(4-fluorophenyl)cyclobutyl)-5-(5-(trifluoromethyl)-1,3,4-oxadiazol-2-yl)pyrimidin-2-amine]: 455 nM and greater than 10000 nM.
Take `FC(F)c1nnc(-c2cnc(NC3(c4ccc(N5CCCCC5)cc4)CCC3)nc2)o1` [Compound 2041, 5-(5-(difluoromethyl)-1,3,4-oxadiazol-2-yl)-N-(1-(4-(piperidin-1-yl)phenyl)cyclobutyl)pyrimidin-2-amine]: the IC50 on human recombinant HDAC6 was 189 nM; at human recombinant HDAC1 it was greater than 10000 nM.
For the molecule `FC(F)(F)c1nnc(-c2cnc(NC3(c4ccccc4Cl)CCC3)nc2)o1` [Compound 1617, N-(1-(2-chlorophenyl)cyclobutyl)-5-(5-(trifluoromethyl)-1,3,4-oxadiazol-2-yl)pyrimidin-2-amine], the figures for the IC50 at human recombinant HDAC6 and on human recombinant HDAC1 were 211 nM and greater than 10000 nM, respectively.
